# Experimental data taken from paper PMC6395927, “Rufomycin Targets ClpC1 Proteolysis in Mycobacterium tuberculosis and M. abscessus” (Antimicrobial Agents and Chemotherapy, 2019).
# Entries after “also recorded” stand apart in the source; their conditions may differ. Where two headings read alike, the source gives them in different places.
# Tests used:
# [1] = test system: Candida albicans (ATCC 10231); test: MIC against nonmycobacteria (OD570); type: cell-based; conditions: ATCC10231, C. albicans
# Excerpt: (§1) Standard compounds used were ampicillin (AMP) and gentamicin (GEN). […] Amphotericin B (AmphB) and ketoconazole (KETO) were used as standard compounds.
# [2] = test system: Escherichia coli (ATCC 25922); test: MIC against nonmycobacteria (OD570); type: cell-based; conditions: ATCC25922, E. coli
# Excerpt: as §1
# [3] = test system: Staphylococcus aureus (ATCC 29213); test: MIC against nonmycobacteria (OD570); type: cell-based; conditions: ATCC29213, S. aureus
# Excerpt: as §1
# [4] = test system: Vero cell (ATCC CRL-81); test: cells; type: cell-based; conditions: Chlorocebus sabaeus, 72 h
# [5] = test system: M. abscessus (ATCC 19977); test: microbe, parasite or virus in culture; type: cell-based, Mycobacterium abscessus; conditions: read-out: MIC
# [6] = test system: M. chelonae (ATCC 35752); test: microbe, parasite or virus in culture; type: cell-based, Mycobacterium chelonae; conditions: Mycobacteroides chelonae, ATCC35752; M. chelonae; read-out: MIC
# [7] = in vivo; design: species or system BALB/c mice; conditions: mice, single i.v. 5 mg/kg
# Protocol: Healthy female BALB/c mice were administered a single dose (5 mg/kg) of RUFI intravenously (i.v.; tail vein). RUFI was formulated using 10% ethanol (EtOH), 40% 10% (2-hydroxypropyl)-β-cyclodextrin (HP-β-CD) solution, and 50% PEG 400. RUFI was first dissolved in 0.102 ml of EtOH, vortexed and sonicated until clear, and then diluted with 0.508 ml of PEG 400 with additional vortex treatment and sonication until clear. Finally, 0.406 ml of 10% HP-β-CD was added to the solution. Then 20 μl of this formulation was pipetted into a 10-ml volumetric flask, and methanol (MeOH) was added to a final concentration of 1 mg/ml. The accuracy of the formulation concentration was verified via high-performance liquid chromatography-tandem mass spectrometry (HPLC-MS/MS) (AB Sciex 6500+; SCIEX, Framingham, MA) by electrospray using multiple reaction monitoring (MRM; 1065.63/1047.70) in positive ion mode. LC was performed with a Kinetex EVO C18 column (50 mm by 3.00 mm [inside diameter], 2.6-μm particle size, 100-Å pore size) using a gradient of 0.1% formic acid (FA) in water–0.1% FA in acetonitrile (ACN) (25% ACN to 95% ACN in 1.5 min) at a flow rate of 0.8 ml/min.
# Blood samples (10 μl) were collected via saphenous vein puncture at 5, 15, and 30 min and 1, 2, 4, 8, and 25 h. […] A standard curve was determined by using RUFI spiked into untreated mouse plasma.
# [8] = target: ClpC1/P1/P2 complex (Mycobacterium tuberculosis, UniProt P9WPC9); type: biochemical, M. tuberculosis
# [9] = test system: M. tuberculosis Erdman (ATCC 35801) in J774A.1 macrophages; type: cell-based, Mycobacterium tuberculosis
# [10] = test system: M. kansasii (ATCC 12478); test: microbe, parasite or virus in culture; type: cell-based; conditions: Mycobacterium kansasii, ATCC12478; M. kansasii; read-out: MIC
# [11] = test system: J774A.1 macrophage (ATCC TIB-67); test: Cytotoxicity in mammalian cells (resazurin); type: cell-based, murine; conditions: Mus musculus, J774.A1; J774, 72 h
# [12] = test system: M. abscessus; test: MBC against M. abscessus; conditions: Mycobacteroides abscessus
# Protocol: Parallel plates were processed as described for M. tuberculosis. The plates were incubated at 37°C for 5 days before CFU determination.
# [13] = test system: M. marinum (ATCC 927); test: microbe, parasite or virus in culture; type: cell-based; conditions: Mycobacterium marinum, ATCC927; M. marinum; read-out: MIC
# [14] = test system: M. bovis (ATCC 35734); test: microbe, parasite or virus in culture; type: cell-based; conditions: Mycobacterium tuberculosis variant bovis, ATCC35734
# [15] = test system: MDA-MB-435 melanoma cells; test: Cytotoxicity against cancer cell lines (CellTiter 96); type: cell-based; conditions: Homo sapiens, MDA-MB-435, 72 h
# Protocol: (§2) Human melanoma cancer cells (MDA-MB-435), human breast cancer cells (MDA-MB-231), and human ovarian cancer cells (OVCAR3) were purchased from the American Type Culture Collection (Manassas, VA). Each cell line was propagated at 37°C in 5% CO2 in RPMI 1640 medium supplemented with FBS (10%), penicillin (100 U/ml), and streptomycin (100 μg/ml). Cells in log phase were harvested by trypsinization, followed by two washing cycles to remove all traces of enzyme. A total of 5,000 cells were seeded per well of a 96-well clear, flat-bottom plate (Microtest 96; Falcon) and incubated overnight (37°C in 5% CO2). Samples dissolved in DMSO were then diluted and added to the respective wells. The cells were incubated in the presence of test substance for 72 h at 37°C and evaluated for viability with a commercial absorbance assay (CellTiter 96 AQueous One Solution cell proliferation assay; Promega Corp., Madison, WI) that measured viable cells. IC50 values are expressed in micromolar values relative to the solvent (DMSO) control.
# [16] = test system: OVCAR 3 ovarian cancer cells; test: as above; type: cell-based; conditions: Homo sapiens; OVCAR 3, 72 h
# Protocol: as §2
# [17] = test system: MDA-MB-231 breast cancer cells; test: as above; type: cell-based; conditions: Homo sapiens, MDA-MB-231, 72 h
# Protocol: as §2
# Chain of ClpC1/P1/P2 complex (P9WPC9 whole entry, one chain of several): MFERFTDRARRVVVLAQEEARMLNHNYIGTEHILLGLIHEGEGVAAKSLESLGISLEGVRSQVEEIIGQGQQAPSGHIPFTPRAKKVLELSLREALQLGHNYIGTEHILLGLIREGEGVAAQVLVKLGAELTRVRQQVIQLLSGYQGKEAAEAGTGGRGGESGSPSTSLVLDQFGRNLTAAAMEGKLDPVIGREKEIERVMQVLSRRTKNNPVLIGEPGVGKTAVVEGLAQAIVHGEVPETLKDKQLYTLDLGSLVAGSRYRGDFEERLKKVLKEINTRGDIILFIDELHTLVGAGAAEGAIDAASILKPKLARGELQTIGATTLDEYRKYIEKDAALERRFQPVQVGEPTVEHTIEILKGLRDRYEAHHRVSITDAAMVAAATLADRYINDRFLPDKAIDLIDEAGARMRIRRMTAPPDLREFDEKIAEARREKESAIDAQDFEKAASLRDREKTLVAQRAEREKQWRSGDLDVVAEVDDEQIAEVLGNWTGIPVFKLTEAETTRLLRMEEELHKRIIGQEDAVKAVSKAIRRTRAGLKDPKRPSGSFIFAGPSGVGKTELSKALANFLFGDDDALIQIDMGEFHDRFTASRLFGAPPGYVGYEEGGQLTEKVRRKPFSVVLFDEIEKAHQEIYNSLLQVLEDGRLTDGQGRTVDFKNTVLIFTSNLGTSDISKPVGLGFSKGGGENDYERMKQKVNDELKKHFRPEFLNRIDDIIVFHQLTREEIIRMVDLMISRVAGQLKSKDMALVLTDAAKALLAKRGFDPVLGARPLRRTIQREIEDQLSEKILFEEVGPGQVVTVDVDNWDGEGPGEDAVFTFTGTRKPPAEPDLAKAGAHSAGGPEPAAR
smiles,measurement,setting,value
"C/C=C/C[C@@H]1NC(=O)[C@H](CC(C)C)N2C(=O)C(C[C@H](C)[C@H]2O)N(C)C(=O)[C@H](C)NC(=O)[C@H](Cc2ccc(O)c([N+](=O)[O-])c2)NC(=O)[C@H](CC(C)C)N(C)C(=O)[C@H](Cc2cn(C(C)(C)C3CO3)c3ccccc23)NC1=O (stereo partly shown) [RUFI, rufomycin I]",MIC,[1],> 10 µM
same,MIC,[2],> 10 µM
same,MIC,[3],> 10 µM
same,IC50,[4],> 50 µM
same,MIC,[5]; M. abscessus,0.42 µM
same,MIC,"[5]; Mycobacteroides abscessus, ATCC19977, M. abscessus",0.4 µM
same,MIC,[6],4.24 µM
same,half-life,"[7]; female, BALB/c, mouse, in vivo, iv, plasma, mean n = 3, read-out: terminal half-life (converted)",1 h
same,clinical abnormalities,[7],no clinical abnormalities observed
same,effect on proteolytic activity of ClpC1/P1/P2 (FITC-casein degradation),[8],significantly decreased the proteolytic capabilities; also recorded: strongly inhibited
same,activity against M. tuberculosis in murine macrophages (CFU),[9],even more potent than rifampin
same,MIC,[10],0.04 µM
same,IC50,[11],13 µM
same,MBC,[12],1.2 µM
same,MIC,[13],< 0.02 µM
same,MIC,[14],< 0.02 µM
same,IC50,[15],12 µM
same,IC50,[16],14 µM
same,IC50,[17],7.7 µM
